From US20230192705A1, “SHP2 INHIBITORS, COMPOSITIONS AND USES THEREOF” (Betta Pharmaceuticals Co., Ltd, priority 2020, published 2023)

Biological target: T1, SHP2 (Homo sapiens, UniProt Q06124)
T1 sequence (Q06124 1-593): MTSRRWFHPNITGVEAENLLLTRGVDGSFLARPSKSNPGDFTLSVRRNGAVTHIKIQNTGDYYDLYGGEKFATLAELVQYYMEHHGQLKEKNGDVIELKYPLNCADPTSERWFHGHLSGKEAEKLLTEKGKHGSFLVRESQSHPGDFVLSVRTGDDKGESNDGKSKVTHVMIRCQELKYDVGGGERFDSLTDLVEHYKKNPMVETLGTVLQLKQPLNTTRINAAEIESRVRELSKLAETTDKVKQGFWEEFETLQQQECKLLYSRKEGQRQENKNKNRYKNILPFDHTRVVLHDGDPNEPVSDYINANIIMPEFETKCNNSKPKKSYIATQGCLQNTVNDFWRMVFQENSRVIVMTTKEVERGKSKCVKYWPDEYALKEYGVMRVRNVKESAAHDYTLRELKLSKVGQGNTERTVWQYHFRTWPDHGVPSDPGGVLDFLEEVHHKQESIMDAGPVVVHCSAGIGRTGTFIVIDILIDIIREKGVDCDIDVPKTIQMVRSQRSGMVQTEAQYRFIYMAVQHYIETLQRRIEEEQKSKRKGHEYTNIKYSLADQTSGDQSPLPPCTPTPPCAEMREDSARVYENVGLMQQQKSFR
Assay: SHP2 allosteric inhibitor enzyme activity assay (DiFMUP fluorescence)
Assay type: biochemical
Conditions: class symbols
Summary of the method: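 SHP2 activated by 0.5 μM IRS1_pY1172(dPEG8)pY1222 peptide, 0.2 ng enzyme per well, 1 h at room temperature with compound (1 μM top, 3-fold series), then DiFMUP substrate 1 h. Buffer: 60 mM HEPES, 75 mM NaCl, 75 mM KCl, 0.05% BRIJ-35, 1 mM EDTA, 5 mM DTT. Fluorescence ex 340/em 450 nm; IC50 by variable-slope fit.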

SMILES | IC50 [nM]
C[C@@H]1OCC2(CCN(c3nc4[nH]nc(C5(c6nncs6)CC5)c4c(=O)[nH]3)CC2)[C@@H]1N [Example 280, 3-(1-(1,3,4-thiadiazol-2-yl)cyclopropyl)-6-((3S,4S)-4-amino-3-methyl-2-oxa-8-azaspiro[4.5]decan-8-yl)-1,5-dihydro-4H-pyrazolo[3,4-d]pyrimidin-4-one] | > 60
C[C@@H]1OCC2(CCN(c3cnc(C4(c5ccccc5)CC4)cn3)CC2)[C@@H]1N [Example 258, (3S,4S)-3-methyl-8-(5-(1-phenylcyclopropyl)pyrazin-2-yl)-2-oxa-8-azaspiro[4.5]decan-4-amine] | > 60
N[C@@H]1Cn2nccc2C12CCN(c1nc3[nH]nc(C4(c5ccccc5)CC4)c3c(=O)[nH]1)CC2 [Example 199, (S)-6-(5′-amino-5′,6′-dihydrospiro[piperidine-4,4′-pyrrolo[1,2-b]pyrazol]-1-yl)-3-(1-phenylcyclopropyl)-1,5-dihydro-4H-pyrazolo[3,4-d]pyrimidin-4-one] | 20 to 60
C[C@@H]1OCC2(CCN(c3nc4[nH]nc(C5(c6cccc(-n7cccn7)c6)CC5)c4c(=O)[nH]3)CC2)[C@@H]1N [Example 314, 3-(1-(3-(1H-pyrazol-1-yl)phenyl)cyclopropyl)-6-((3S,4S)-4-amino-3-methyl-2-oxa-8-azaspiro[4.5]decan-8-yl)-1,5-dihydro-4H-pyrazolo[3,4-d]pyrimidin-4-one] | > 60
COc1ccccc1C1(c2n[nH]c3nc(N4CCC5(CC4)Cc4ccccc4[C@H]5N)[nH]c(=O)c23)CC12CCCC2 (stereo partly drawn) [Example 101, 6-((S)-1-amino-1,3-dihydrospiro[indene-2,4′-piperidin]-1′-yl)-3-(1-(2-methoxyphenyl)spiro[2.4]heptan-1-yl)-1,5-dihydro-4H-pyrazolo[3,4-d]pyrimidin-4-one] | 20 to 60

More lines, now with the values ahead:

IC50 [nM] | SMILES
20 to 60 | C[C@@H]1OCC2(CCN(c3nc4[nH]nc(C5(c6cccc(C(F)(F)F)c6)CC5)c4c(=O)[nH]3)CC2)[C@@H]1N [Example 297, 6-((3S,4S)-4-amino-3-methyl-2-oxa-8-azaspiro[4.5]decan-8-yl)-3-(1-(3-(trifluoromethyl)phenyl)cyclopropyl)-1,5-dihydro-4H-pyrazolo[3,4-d]pyrimidin-4-one]
≤ 20 | Cc1cnc(C2(c3n[nH]c4nc(N5CCC6(CC5)Cc5ccccc5[C@H]6N)[nH]c(=O)c34)CC2)o1 [Example 244, (S)-6-(1-amino-1,3-dihydrospiro[indene-2,4′-piperidin]-1′-yl)-3-(1-(5-methyloxazol-2-yl)cyclopropyl)-1,5-dihydro-4H-pyrazolo[3,4-d]pyrimidin-4-one]
≤ 20 | Cc1cc2c(nn1)CC(C)(C)C=C2c1n[nH]c2nc(N3CCC4(CC3)Cc3ccccc3[C@H]4N)[nH]c(=O)c12 [Example 164, (S)-6-(1-amino-1,3-dihydrospiro[indene-2,4′-piperidin]-1′-yl)-3-(3,7,7-trimethyl-7,8-dihydrocinnolin-5-yl)-1,5-dihydro-4H-pyrazolo[3,4-d]pyrimidin-4-one]
≤ 20 | N[C@@H]1c2ccccc2CC12CCN(c1nc3[nH]nc(C4(c5cnn(Cc6ccccc6)c5)CC4)c3c(=O)[nH]1)CC2 [Example 57, (S)-6-(1-amino-1,3-dihydrospiro[indene-2,4′-piperidin]-1′-yl)-3-(1-(1-benzyl-1H-pyrazol-4-yl)cyclopropyl)-1,5-dihydro-4H-pyrazolo[3,4-d]pyrimidin-4-one]
20 to 60 | N[C@@H]1c2ccccc2CC12CCN(c1nc3[nH]nc(C4(c5ccccc5)CCOC4)c3c(=O)[nH]1)CC2 (stereo partly drawn) [Example 98, 6-((S)-1-amino-1,3-dihydrospiro[indene-2,4′-piperidin]-1′-yl)-3-(3-phenyltetrahydrofuran-3-yl)-1,5-dihydro-4H-pyrazolo[3,4-d]pyrimidin-4-one]
≤ 20 | N[C@@H]1c2ccccc2CC12CCN(c1nc3[nH]nc(C4(c5ccsc5)CC4)c3c(=O)[nH]1)CC2 [Example 236, (S)-6-(1-amino-1,3-dihydrospiro[indene-2,4′-piperidin]-1′-yl)-3-(1-(thiophen-3-yl)cyclopropyl)-l,5-dihydro-4H-pyrazolo[3,4-d]pyrimidin-4-one]
